The target in the assay is T1, Human BCL-XL protein (N-terminal HiBiT tagged BCL-XL in HT1080 cells) (Homo sapiens, UniProt Q07817).
T1 construct: expressed in transfected cells; host or cells: HT-1080 (ATCC CCL-121), stably transduced with lentivirus pLV-UBC-N-HiBiT-BCL-XL-PGK-puro and selected with puromycin
In words: HiBiT based degradation assay. To be noted: HT1080 cells expressing HiBiT-BCL-XL; for Ymin (6 h) / Ymin (24 h): BCL-XL degradation normalized with DMSO control; for DC50: BCL-XL degradation. The class given is cell-based. The method in brief: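 This HiBiT degradation assay measured loss of BCL-XL in HT1080 cells that stably express an N-terminal HiBiT-BCL-XL fusion delivered by lentivirus. Cells were added to compound-spotted 384-well plates, and luminescence was read on a PHERAstar FSX reader. Signal was expressed relative to DMSO controls, curves were fitted by four-parameter logistic regression, and for hook-shaped curves the Ymin point served as the bottom plateau when calculating EC50.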
Background: With HiBiT, luminescence reflects the tagged protein that the partner subunit can reach.

Where two headings read alike, the source gives them in different places.

T1 sequence (Q07817 whole entry): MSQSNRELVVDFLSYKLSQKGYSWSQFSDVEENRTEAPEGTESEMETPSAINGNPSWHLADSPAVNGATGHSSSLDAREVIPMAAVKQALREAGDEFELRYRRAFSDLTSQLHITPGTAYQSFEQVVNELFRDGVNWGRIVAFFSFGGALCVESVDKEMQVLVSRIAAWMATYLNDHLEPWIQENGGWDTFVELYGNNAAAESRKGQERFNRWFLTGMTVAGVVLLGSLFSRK

As for `Cn1nc(C2CCC(=O)NC2=O)c2ccc(NC(=O)CN3CCN(CCOc4cccc(-c5ccc(N6CCc7cccc(C(=O)Nc8nc9ccccc9s8)c7C6)nc5C(=O)O)c4C(F)(F)F)CC3)cc21` (centres unmarked) [Compound 126, 6-(8-(benzo[d]thiazol-2-ylcarbamoyl)-3,4-dihydroisoquinolin-2(1H)-yl)-3-(3-(2-(4-(2-((3-(2,6-dioxopiperidin-3-yl)-1-methyl-1H-indazol-6-yl)amino)-2-oxoethyl)piperazin-1-yl)ethoxy)-2-(trifluoromethyl)phenyl)picolinic acid], the “Ymin (6 h)” value (6 h) was “B (50% ≤ Ymin < 70%)”. Moreover, the DC50 (6 h, read-out: EC50 (6 h)) lay in the range of 100 to 1000 nM.

For `Cc1c(OCCCN2C[C@H]3CC[C@@H](C2)N3CC(=O)Nc2ccc3c(C4CCC(=O)NC4=O)nn(C)c3c2)cccc1-c1ccc(N2CCc3cccc(C(=O)Nc4nc5ccccc5s4)c3C2)nc1C(=O)O` (stereo partly drawn) [Compound 127, 6-(8-(benzo[d]thiazol-2-ylcarbamoyl)-3,4-dihydroisoquinolin-2(1H)-yl)-3-(3-(3-((1R,5S)-8-(2-((3-(2,6-dioxopiperidin-3-yl)-1-methyl-1H-indazol-6-yl)amino)-2-oxoethyl)-3,8-diazabicyclo[3.2.1]octan-3-yl)propoxy)-2-methylphenyl)picolinic acid], where the note is “6 h”, the “Ymin (6 h)” value is reported as “B (50% ≤ Ymin < 70%)”. In addition, the “Ymin (24 h)” value (24 h) is on record as “A (Ymin < 50%)”. Moreover, the DC50 is less than 100 nM (6 h, read-out: EC50 (6 h)) and less than 100 nM (24 h, read-out: EC50 (24 h)).

Consider `Cc1c(Oc2ccccc2CCCC(=O)Nc2cccc3c(C4CCC(=O)NC4=O)nn(C)c23)cccc1-c1ccc(N2CCc3cccc(C(=O)Nc4nc5ccccc5s4)c3C2)nc1C(=O)O` (centres unmarked) [Compound 128, 6-(8-(benzo[d]thiazol-2-ylcarbamoyl)-3,4-dihydroisoquinolin-2(1H)-yl)-3-(3-(2-(4-((3-(2,6-dioxopiperidin-3-yl)-1-methyl-1H-indazol-7-yl)amino)-4-oxobutyl)phenoxy)-2-methylphenyl)picolinic acid], for which the “Ymin (6 h)” value (6 h) is reported as “C (Ymin ≥ 70%)”. Moreover, the “Ymin (24 h)” value (24 h) was “C (Ymin ≥ 70%)”. The DC50 (6 h, read-out: EC50 (6 h)) lay in the range of 1000 to 10000 nM and the DC50 (24 h, read-out: EC50 (24 h)) is less than 100 nM.

For `Cc1c(Oc2ccccc2CCCC(=O)Nc2ccc3c(C4CCC(=O)NC4=O)nn(C)c3c2)cccc1-c1ccc(N2CCc3cccc(C(=O)Nc4nc5ccccc5s4)c3C2)nc1C(=O)O` (centres unmarked) [Compound 129, 6-(8-(benzo[d]thiazol-2-ylcarbamoyl)-3,4-dihydroisoquinolin-2(1H)-yl)-3-(3-(2-(4-((3-(2,6-dioxopiperidin-3-yl)-1-methyl-1H-indazol-6-yl)amino)-4-oxobutyl)phenoxy)-2-methylphenyl)picolinic acid], the “Ymin (6 h)” value (6 h) was “C (Ymin ≥ 70%)”. Besides, the “Ymin (24 h)” value (24 h) is “C (Ymin ≥ 70%)”. The DC50 (6 h, read-out: EC50 (6 h)) was in the range of 1000 to 10000 nM and the DC50 (24 h, read-out: EC50 (24 h)) was less than 100 nM.

Turning to `Cc1c(CCCCN2CCN(CC(=O)Nc3ccc4c(C5CCC(=O)NC5=O)nn(C)c4c3)CC2)cccc1-c1ccc(N2CCc3cccc(C(=O)Nc4nc5ccccc5s4)c3C2)nc1C(=O)O` (centres unmarked) [Compound 130, 6-[8-(1,3-Benzothiazol-2-ylcarbamoyl)-3,4-dihydro-1H-isoquinolin-2-yl]-3-[3-[4-[4-[2-[[3-(2,6-dioxo-3-piperidyl)-1-methyl-indazol-6-yl]amino]-2-oxo-ethyl]piperazin-1-yl]butyl]-2-methyl-phenyl]pyridine-2-carboxylic acid], under “6 h”, the “Ymin (6 h)” value is reported as “A (Ymin < 50%)”. For the same molecule, the “Ymin (24 h)” value (24 h) is “A (Ymin < 50%)”. Also, the DC50 was less than 100 nM (6 h, read-out: EC50 (6 h)) and less than 100 nM (24 h, read-out: EC50 (24 h)).

With `Cc1c(OCCCN2[C@H](C)CN(CC(=O)Nc3ccc4c(C5CCC(=O)NC5=O)nn(C)c4c3)C[C@@H]2C)cccc1-c1ccc(N2CCc3cccc(C(=O)Nc4nc5ccccc5s4)c3C2)nc1C(=O)O` (stereo partly drawn) [Compound 131a, 6-[8-(1,3-benzothiazol-2-ylcarbamoyl)-3,4-dihydro-1H-isoquinolin-2-yl]-3-[3-[3-[(2R,6S)-4-[2-[[3-(2,6-dioxo-3-piperidyl)-1-methyl-indazol-6-yl]amino]-2-oxo-ethyl]-2,6-dimethyl-piperazin-1-yl]propoxy]-2-methyl-phenyl]pyridine-2-carboxylic acid], where the note is “6 h”, the “Ymin (6 h)” value is recorded as “A (Ymin < 50%)”. Where the note is “24 h”, the “Ymin (24 h)” value is recorded as “A (Ymin < 50%)”. Besides, the DC50 by setting is: (6 h, read-out: EC50 (6 h)) less than 100 nM; (24 h, read-out: EC50 (24 h)) less than 100 nM.

Take `Cc1c(Oc2ccc(CCCC(=O)Nc3ccc4c(C5CCC(=O)NC5=O)nn(C)c4c3)cc2)cccc1-c1ccc(N2CCc3cccc(C(=O)Nc4nc5ccccc5s4)c3C2)nc1C(=O)O` (centres unmarked) [Compound 132, 6-(8-(benzo[d]thiazol-2-ylcarbamoyl)-3,4-dihydroisoquinolin-2(1H)-yl)-3-(3-(4-(4-((3-(2,6-dioxopiperidin-3-yl)-1-methyl-1H-indazol-6-yl)amino)-4-oxobutyl)phenoxy)-2-methylphenyl)picolinic acid]: the “Ymin (6 h)” value (6 h) is given as “C (Ymin ≥ 70%)”. Besides, the “Ymin (24 h)” value (24 h) is reported as “B (50% ≤ Ymin < 70%)”. Further, the DC50 lay within 1000 to 10000 nM (6 h, read-out: EC50 (6 h)) and 100 to 1000 nM (24 h, read-out: EC50 (24 h)).

For the molecule `Cc1c(OCCCN2CCN(CCCOc3ccc4c(C5CCC(=O)NC5=O)nn(C)c4c3)CC2)cccc1-c1ccc(N2CCc3cccc(C(=O)Nc4nc5ccccc5s4)c3C2)nc1C(=O)O` (centres unmarked) [Compound 133, 6-(8-(Benzo[d]thiazol-2-ylcarbamoyl)-3,4-dihydroisoquinolin-2(1H)-yl)-3-(3-(3-(4-(3-((3-(2,6-dioxopiperidin-3-yl)-1-methyl-1H-indazol-6-yl)oxy)propyl)piperazin-1-yl)propoxy)-2-methylphenyl)picolinic acid], the “Ymin (6 h)” value (6 h) is on record as “A (Ymin < 50%)”. Besides, for the setting “24 h”, the “Ymin (24 h)” value was “A (Ymin < 50%)”. For the same molecule, the DC50 reads like this: (6 h, read-out: EC50 (6 h)) less than 100 nM; (24 h, read-out: EC50 (24 h)) less than 100 nM.

`Cc1c(Oc2ccccc2CCC(=O)Nc2ccc(C3CCC(=O)NC3=O)cc2)cccc1-c1ccc(N2CCc3cccc(C(=O)Nc4nc5ccccc5s4)c3C2)nc1C(=O)O` (centres unmarked) [Compound 134, 6-(8-(benzo[d]thiazol-2-ylcarbamoyl)-3,4-dihydroisoquinolin-2(1H)-yl)-3-(3-(2-(3-((4-(2,6-dioxopiperidin-3-yl)phenyl)amino)-3-oxopropyl)phenoxy)-2-methylphenyl)picolinic acid]: the “Ymin (6 h)” value (6 h) is given as “B (50% ≤ Ymin < 70%)”. For the same molecule, for the setting “24 h”, the “Ymin (24 h)” value was “B (50% ≤ Ymin < 70%)”. For the same molecule, the DC50 was 100 to 1000 nM (6 h, read-out: EC50 (6 h)) and less than 100 nM (24 h, read-out: EC50 (24 h)).

`Cc1c(-c2ccc(N3CCc4cccc(C(=O)Nc5nc6ccccc6s5)c4C3)nc2C(=O)NCC(=O)Nc2ccc3c(C4CCC(=O)NC4=O)nn(C)c3c2)cnn1Cc1ccccc1` (centres unmarked) [Compound 135, N-(1,3-benzothiazol-2-yl)-2-[5-(1-benzyl-5-methyl-pyrazol-4-yl)-6-[[2-[[3-(2,6-dioxo-3-piperidyl)-1-methyl-indazol-6-yl]amino]-2-oxo-ethyl]carbamoyl]-2-pyridyl]-3,4-dihydro-1H-isoquinoline-8-carboxamide]: the “Ymin (6 h)” value (6 h) was “B (50% ≤ Ymin < 70%)”. Also, the DC50 (6 h, read-out: EC50 (6 h)) is less than 100 nM.

For the molecule `Cc1c(OCCCN2CCN(CCOc3ccc4c(C5CCC(=O)NC5=O)nn(C)c4c3)CC2)cccc1-c1ccc(N2CCc3cccc(C(=O)Nc4nc5ccccc5s4)c3C2)nc1C(=O)O` (centres unmarked) [Compound 136, 6-(8-(benzo[d]thiazol-2-ylcarbamoyl)-3,4-dihydroisoquinolin-2(1H)-yl)-3-(3-(3-(4-(2-((3-(2,6-dioxopiperidin-3-yl)-1-methyl-1H-indazol-6-yl)oxy)ethyl)piperazin-1-yl)propoxy)-2-methylphenyl)picolinic acid], the “Ymin (6 h)” value (6 h) is “B (50% ≤ Ymin < 70%)”. For the same molecule, the “Ymin (24 h)” value (24 h) is given as “B (50% ≤ Ymin < 70%)”. Further, the DC50 was 100 to 1000 nM (6 h, read-out: EC50 (6 h)) and less than 100 nM (24 h, read-out: EC50 (24 h)).

`Cc1c(OCCCCCCCN2CCN(c3ccc4c(C5CCC(=O)NC5=O)nn(C)c4c3)CC2)cccc1-c1ccc(N2CCc3cccc(C(=O)Nc4nc5ccccc5s4)c3C2)nc1C(=O)O` (centres unmarked) [Compound 137, 6-(8-(benzo[d]thiazol-2-ylcarbamoyl)-3,4-dihydroisoquinolin-2(1H)-yl)-3-(3-((7-(4-(3-(2,6-dioxopiperidin-3-yl)-1-methyl-1H-indazol-6-yl)piperazin-1-yl)heptyl)oxy)-2-methylphenyl)picolinic acid]: the “Ymin (6 h)” value (6 h) is “B (50% ≤ Ymin < 70%)”. Besides, for the setting “24 h”, the “Ymin (24 h)” value was “A (Ymin < 50%)”. Also, the DC50 (6 h, read-out: EC50 (6 h)) was less than 100 nM and the DC50 (24 h, read-out: EC50 (24 h)) was less than 100 nM.

As for `Cc1c(O[C@H]2CC[C@H](CCC(=O)N3CCN(c4ccc5c(C6CCC(=O)NC6=O)nn(C)c5c4)CC3)CC2)cccc1-c1ccc(N2CCc3cccc(C(=O)Nc4nc5ccccc5s4)c3C2)nc1C(=O)O` (some centres unmarked) [Compound 138a, 6-(8-(benzo[d]thiazol-2-ylcarbamoyl)-3,4-dihydroisoquinolin-2(1H)-yl)-3-(3-(((1r,4r)-4-(3-(4-(3-(2,6-dioxopiperidin-3-yl)-1-methyl-1H-indazol-6-yl)piperazin-1-yl)-3-oxopropyl)cyclohexyl)oxy)-2-methylphenyl)picolinic acid], where the note is “6 h”, the “Ymin (6 h)” value is given as “B (50% ≤ Ymin < 70%)”. In addition, the “Ymin (24 h)” value (24 h) is reported as “B (50% ≤ Ymin < 70%)”. In addition, the DC50 runs as follows: (6 h, read-out: EC50 (6 h)) 1000 to 10000 nM; (24 h, read-out: EC50 (24 h)) less than 100 nM.

On to `Cc1c(O[C@H]2CC[C@@H](CCC(=O)N3CCN(c4ccc5c(C6CCC(=O)NC6=O)nn(C)c5c4)CC3)CC2)cccc1-c1ccc(N2CCc3cccc(C(=O)Nc4nc5ccccc5s4)c3C2)nc1C(=O)O` (some centres unmarked) [Compound 138b, 6-(8-(benzo[d]thiazol-2-ylcarbamoyl)-3,4-dihydroisoquinolin-2(1H)-yl)-3-(3-(((1s,4s)-4-(3-(4-(3-(2,6-dioxopiperidin-3-yl)-1-methyl-1H-indazol-6-yl)piperazin-1-yl)-3-oxopropyl)cyclohexyl)oxy)-2-methylphenyl)picolinic acid], for which the “Ymin (24 h)” value (24 h) is given as “B (50% ≤ Ymin < 70%)”. In addition, the DC50 (24 h, read-out: EC50 (24 h)) was less than 100 nM.

The record behind these values is patent US20240238423A9, “TETRAHYDROISOQUINOLINE HETEROBIFUNCTIONAL BCL-XL DEGRADERS” (Treeline Biosciences, Inc., priority 2022, published 2024).
